In patent US6734292B1, “Pseudoerythromycin derivatives” (The Kitasato Institute, priority 2002, dated 2004):

Test system: THP-1 cells
Assay: enhancing effect for differentiation-induction from human monocyte to macrophage (THP-1/Mφ system, MTT readout)
Assay type: cell-based
Design: key: ++: enhanced 100% or more; +: enhanced 50-100%; ±: enhanced 25-50%; −: no activity; /: expressed cytoxicity; NT: not tested or under assessment
Settings: in comparison with enhancing action for differentiation-induction of EM 100 μM
Protocol: In order to confirm enhancing effect for differentiation-induction of the compounds of the present invention, the enhancing effect for differentiation-induction from human monocyte to macrophage was assayed. Method is performed as follows. THP-1 cells were collected from cultured liquid by centrifugation, adjusted the concentration to 2×10^5 cells/ml using medium (RPMI 1640) and distributed into the 48-well plate at 500 μl/well. PMA solution 10 μl and sample solution 5 μl were added in each well, stirred with mild shaking and incubated at 37° C. for 72-96 hours under 5% CO2. Further MTT 0.5 mg/ml solution was added at 300 μl/well, and incubated at 37° C. for 3 hours under 5% CO2. Supernatant solution was suctioned using the injection tube, added DMSO 500 μl using automatic continuous injector to dissolve formazan completely and transferred each 100 μl to the 96-well plate. The optical absorption was measured using the plate-reader.

SMILES	activities in THP-1/Mφ system, Treated conc. 3 μM	activities in THP-1/Mφ system, Treated conc. 10 μM	activities in THP-1/Mφ system, Treated conc. 30 μM	activities in THP-1/Mφ system, Treated conc. 0.3 μM	activities in THP-1/Mφ system, Treated conc. 1 μM
CC[C@H]1OC(=O)[C@H](C)[C@@H](O[C@H]2C[C@@](C)(OC)[C@@H](O)[C@H](C)O2)[C@H](C)[C@@H](O[C@@H]2O[C@H](C)C[C@H](N(C)C)[C@H]2O)[C@](C)(OC)C[C@@H](C)C(=O)[C@H](C)[C@@H](O)[C@]1(C)O [CAM, reference compound]	−	+ (enhanced 50-100%)	−		
CCC(O)C(C)(O)C1OC(=O)C(C)C(OC2CC(C)(OC)C(O)C(C)O2)C(C)C(OC2OC(C)CC(N)C2O)C2(C)CC(C)=C(O2)C1C (stereo not drawn) [EM721, bis-de(3′-N-methyl)-8,9-anhydro-pseudo erythromycin A 6,9-hemiketal]	−	+ (enhanced 50-100%)			
CCNC1CC(C)OC(OC2C(C)C(OC3CC(C)(OC)C(O)C(C)O3)C(C)C(=O)OC(C(C)(O)C(O)CC)C(C)C3=C(C)CC2(C)O3)C1O (stereo not drawn) [EM722, bis-de(3′-N-methyl)-3′-N-ethyl-8,9-anhydro-pseudoerythromycin A 6,9-hemiketal]	+ (enhanced 50-100%)	++ (enhanced 100% or more)		−	+ (enhanced 50-100%)
CC[C@@H](O)[C@@](C)(O)[C@@H]1OC(=O)[C@H](C)[C@@H](O[C@H]2C[C@@](C)(OC)[C@@H](O)[C@H](C)O2)[C@H](C)[C@@H](O[C@@H]2O[C@H](C)C[C@H](N(CC)CC)[C@H]2O)[C@@]2(C)CC(C)=C(O2)[C@@H]1C [EM723, bis-de(3′-N-methyl)-3′,3′-N,N-diethyl-8,9-anhydro-pseudoerythromycin A 6,9-hemiketal]	+ (enhanced 50-100%)			−	+ (enhanced 50-100%)
C=CCNC1CC(C)OC(OC2C(C)C(OC3CC(C)(OC)C(O)C(C)O3)C(C)C(=O)OC(C(C)(O)C(O)CC)C(C)C3=C(C)CC2(C)O3)C1O (stereo not drawn) [EM724, bis-de(3′-N-methyl)-3′-N-allyl-8,9-anhydro-pseudoerythromycin A 6,9-hemiketal]	+ (enhanced 50-100%)	++ (enhanced 100% or more)		−	+ (enhanced 50-100%)
C=CCN(CC=C)C1CC(C)OC(OC2C(C)C(OC3CC(C)(OC)C(O)C(C)O3)C(C)C(=O)OC(C(C)(O)C(O)CC)C(C)C3=C(C)CC2(C)O3)C1O (stereo not drawn) [EM725, bis-de(3′-N-methyl)-3′,3′-N,N-diallyl-8,9-anhydro-pseudoerythromycin A 6,9-hemiketal]	± (enhanced 25-50%)	+ (enhanced 50-100%)			−
CCC(O)C(C)(O)C1OC(=O)C(C)C(OC2CC(C)(OC)C(O)C(C)O2)C(C)C(OC2OC(C)CC(NC(C)=O)C2O)C2(C)CC(C)=C(O2)C1C (stereo not drawn) [EM726, bis-de(3′-N-methyl)-3′-N-acetyl-8,9-anhydro-pseudoerythromycin A 6,9-hemiketal]	−	−	−	−	−
CCC(O)C(C)(O)C1OC(=O)C(C)C(OC2CC(C)(OC)C(O)C(C)O2)C(C)C(OC2OC(C)CC(N(C)S(C)(=O)=O)C2O)C2(C)CC(C)=C(O2)C1C (stereo not drawn) [EM727, de(3′-N-methyl)-3′-N-sulfonyl-8,9-anhydro-pseudoerythromycin A 6,9-hemiketal]	+ (enhanced 50-100%)	+ (enhanced 50-100%)		−	+ (enhanced 50-100%)
C#CCNC1CC(C)OC(OC2C(C)C(OC3CC(C)(OC)C(O)C(C)O3)C(C)C(=O)OC(C(C)(O)C(O)CC)C(C)C3=C(C)CC2(C)O3)C1O (stereo not drawn) [EM728, bis-de(3′-N-methyl)-3′-N-propargyl-8,9-anhydro-pseudoerythromycin A 6,9-hemiketal]	+ (enhanced 50-100%)	+ (enhanced 50-100%)	+ (enhanced 50-100%)	−	+ (enhanced 50-100%)
C#CCN(CC#C)C1CC(C)OC(OC2C(C)C(OC3CC(C)(OC)C(O)C(C)O3)C(C)C(=O)OC(C(C)(O)C(O)CC)C(C)C3=C(C)CC2(C)O3)C1O (stereo not drawn) [EM729, bis-de(3′-N-methyl)-3′,3′-N,N-di-propargyl-8,9-anhydro-pseudoerythromycin A 6,9-hemiketal]	± (enhanced 25-50%)	± (enhanced 25-50%)		−	± (enhanced 25-50%)
CCCNC1CC(C)OC(OC2C(C)C(OC3CC(C)(OC)C(O)C(C)O3)C(C)C(=O)OC(C(C)(O)C(O)CC)C(C)C3=C(C)CC2(C)O3)C1O (stereo not drawn) [EM730, bis-de(3′-N-methyl)-3′-N-propyl-8,9-anhydro-pseudoerythromycin A 6,9-hemiketal]	+ (enhanced 50-100%)			+ (enhanced 50-100%)	+ (enhanced 50-100%)
CCCN(CCC)C1CC(C)OC(OC2C(C)C(OC3CC(C)(OC)C(O)C(C)O3)C(C)C(=O)OC(C(C)(O)C(O)CC)C(C)C3=C(C)CC2(C)O3)C1O (stereo not drawn) [EM731, bis-de(3′-N-methyl)-3′,3′-N,N-di-propyl-8,9anhydro-pseudoerythromycin A 6,9-hemiketal]	+ (enhanced 50-100%)			−	−
CCC(O)C(C)(O)C1OC(=O)C(C)C(OC2CC(C)(OC)C(O)C(C)O2)C(C)C(OC2OC(C)CC(NCc3ccccc3)C2O)C2(C)CC(C)=C(O2)C1C (stereo not drawn) [EM732, bis-de(3′-N-methyl)-3′-N-benzyl-8,9-anhydro-pseudoerythromycin A 6,9-hemiketal]	+ (enhanced 50-100%)	+ (enhanced 50-100%)		+ (enhanced 50-100%)	+ (enhanced 50-100%)
CCC(O)C(C)(O)C1OC(=O)C(C)C(OC2CC(C)(OC)C(O)C(C)O2)C(C)C(OC2OC(C)CC(N(Cc3ccccc3)Cc3ccccc3)C2O)C2(C)CC(C)=C(O2)C1C (stereo not drawn) [EM733, bis-de(3′-N-methyl)-3′,3′-N,N-di-benzyl-8,9-anhydro-pseudoerythromycin A 6,9-hemiketal]	± (enhanced 25-50%)			−	± (enhanced 25-50%)
CCC(O)C(C)(O)C1OC(=O)C(C)C(OC2CC(C)(OC)C(O)C(C)O2)C(C)C(OC2OC(C)CC(N3CCCC3)C2O)C2(C)CC(C)=C(O2)C1C (stereo not drawn) [EM735, de(3′-dimethylamino)-3′-pyrrolidino-8,9-anhydro-pseudoerythromycin A 6,9-hemiketal]	+ (enhanced 50-100%)	++ (enhanced 100% or more)		−	± (enhanced 25-50%)
